Results taken from patent US5597899A, “Tumor necrosis factor muteins” (Hoffmann-La Roche Inc., priority 1993, dated 1997).

How the values were obtained:
human TNFR-p75 = test: Solid phase radioligand competition binding assay, E. coli lysates, TNFR-p75; conditions: 10-fold serial dilutions 10^-2 to 10^-7, < = inhibition but below 50% at 1:100, << = no measurable inhibition at 1:100
Description: (§1) 10 ml suspensions of E. coli cells transformed and induced as described in Examples I and II were centrifuged at 4'000 rpm for 10 min and resuspended in 0.9 ml of lysis buffer (10 mM Tris-HCl pH 8.0, 5 mM EDTA, 2 mM PMSF, 10 mM benzamidine, 200 units/ml aprotinine and 0.1 mg/ml lysozyme). After 20 min incubation at room temperature 50 μl of 1M MgCl2, 20 μl of 5 mg/ml DNaseI, 50 μl of 5M NaCl and 50 μl of 10% NP-40 were added and the mixture was further incubated at room temperature for 15 min. 0.5 ml of the lysate clarified by centrifugation at 13'000 rpm for 5 min was subjected to ammonium sulfate precipitation (25%-70% cut). The 70% ammonium sulfat pellet was dissolved in 0.2 ml PBS and analyzed by sodium dodecyl sulfate polyacrylamide gel electrophoresis (SDS-PAGE) to confirm presence and approximate amount of the recombinant proteins.
96 well microtiter plates were coated with recombinant human […] TNFR-p75-hγ3 and TNFR-p55-hγ3 fusion proteins (extracellular portion of the receptor fused to the Fc part of human IgG3) at a concentration of 0.3 μg/ml and 0.1 μg/ml, respectively, in phosphate buffered saline (PBS, 100 μl/well, overnight at 4° C.) [Loetscher, H. et al. J. Biol. Chem. 266, 18324-18329 (1991); Lesslauer, W. et al. Eur. J. Immunol. 21, 2883-2886 (1991)]. After blocking with blocking buffer (50 mM Tris pH 7.4, 140 mM NaCl, 5 mM EDTA, 0.02% NAN3, 1% defatted milk powder) the microtiter plate was washed with PBS and incubated in blocking buffer containing 0.1% defatted milk powder with 10 ng/ml human wild-type ^125 I-TNFα and various dilutions of E. coli lysates ranging from 10^-2 to 10^-7 (10-fold serial dilutions). TNFα was labelled by the Iodogen method (Pierce Chemical Company) to a specific activity of about 10-30 μCi/μg. The volume was 100 μl/well and each lysate dilution was assayed in duplicate or triplicate. After three hours at room temperature the wells were thoroughly washed with PBS and counted in a γ-counter. The results are given in Table 2 for lysates comprising the muteins indicated therein.

human TNFR-p55 = test: Solid phase radioligand competition binding assay, E. coli lysates, TNFR-p55; conditions: for Dilution of E. coli Lysate for 50% Inhibition of 125I-TNFα Binding (ID50) TNFR-p55: 10-fold serial dilutions 10^-2 to 10^-7, < = inhibition but below 50% at 1:100, << = no measurable inhibition at 1:100; for ID50 TNFR-p55 / ID50 TNFR-p75: ratio = 1 no receptor selectivity, > 1 TNFR-p55 selectivity, < 1 TNFR-p75 selectivity
Description: as §1, with “After” for “10 ml suspensions of E. coli cells transformed and induced as described in Examples I and II were centrifuged at 4'000 rpm for 10 min and resuspended in 0.9 ml of lysis buffer (10 mM Tris-HCl pH 8.0, 5 mM EDTA, 2 mM PMSF, 10 mM benzamidine, 200 units/ml aprotinine and 0.1 mg/ml lysozyme). After”
TNFα was labelled by the Iodogen method (Pierce Chemical Company) to a specific activity of about 10-30 μCi/μg. The volume was 100 μl/well and each lysate dilution was assayed in duplicate or triplicate. After three hours at room temperature the wells were thoroughly washed with PBS and counted in a γ-counter. The results are given in Table 2 for lysates comprising the muteins indicated therein.

Row | Substance | Dilution of E. coli Lysate for 50% Inhibition of 125I-TNFα Binding (ID50) TNFR-p75 (human TNFR-p75) | Dilution of E. coli Lysate for 50% Inhibition of 125I-TNFα Binding (ID50) TNFR-p55 (human TNFR-p55) | ID50 TNFR-p55 / ID50 TNFR-p75 (human TNFR-p55)
1 | R31E-S86T: human TNFα mutein R31E-S86T | < 100 fold | 2,000 fold | > 20
2 | R31E: human TNFα mutein R31E | 180 fold | 3,470 fold | 19.3
3 | R31K: human TNFα mutein R31K | 3,330 fold | 3,330 fold | 1
4 | R31N-R32T: human TNFα mutein R31N-R32T | < 100 fold | 3,260 fold | > 32.6
5 | R32W-S86T: human TNFα mutein R32W-S86T | < 100 fold | 3,330 fold | > 33.3
6 | S86D: human TNFα mutein S86D | 1,000 fold | 6,670 fold | 6.7
7 | S86T: human TNFα mutein S86T | < 100 fold | 10,000 fold | > 100
8 | S99A: human TNFα mutein S99A | 6,670 fold | 6,670 fold | 1
9 | S99Y: human TNFα mutein S99Y | < 100 fold | < 100 fold | 1
10 | S147L: human TNFα mutein S147L | 3,330 fold | 2,000 fold | 0.6
11 | S147N: human TNFα mutein S147N | 10,000 fold | 10,000 fold | 1
12 | Y87E: human TNFα mutein Y87E | < 100 fold | < 100 fold | > 1
13 | Y87F: human TNFα mutein Y87F | < 100 fold | 200 fold | > 2
14 | Y87G: human TNFα mutein Y87G | < 100 fold | < 100 fold | 1
15 | Y87K: human TNFα mutein Y87K | < 100 fold | < 100 fold | 1
16 | Y87L: human TNFα mutein Y87L | < 100 fold | < 100 fold | 1
17 | Y87Q: human TNFα mutein Y87Q | < 100 fold | < 100 fold | 1
18 | Y87T-E104G: human TNFα mutein Y87T-E104G | < 100 fold | < 100 fold | 1
